ChEMBL document CHEMBL4382293, “Triazolopyrimidines and Imidazopyridines: Structure-Activity Relationships and in Vivo Efficacy for Trypanosomiasis” (ACS Med Chem Lett, 2019)

Experiments:
Type in all cases: ADME, organism-based
[1] = AUC in Swiss Webster mouse at 50 mg/kg, po administered as single dose via gavage by LC/MS analysis; settings: in vivo
[2] = Ratio of drug level in brain to plasma in Swiss Webster mouse at 5 mg/kg, ip measured after 1 hr by LC/MS analysis; settings: for Kp at 1 h: Swiss Webster, brain/plasma, read-out: BPR
[3] = Cmax in Swiss Webster mouse at 50 mg/kg, po administered as single dose via gavage by LC/MS analysis; parameters: dose 50 mg/kg, route oral; settings: in vivo
[4] = Volume of distribution at steady state in Swiss Webster mouse at […], iv administered as single dose by LC/MS analysis; settings: in vivo, read-out: Vdss
[5] = Oral bioavailability in Swiss Webster mouse at 50 mg/kg administered as single dose via gavage by LC/MS analysis; settings: in vivo
[6] = Drug level in Swiss Webster mouse plasma at 5 mg/kg, ip measured after 1 hr by LC/MS analysis
[7] = Drug level in Swiss Webster mouse brain at 5 mg/kg, ip measured after 1 hr by LC/MS analysis; settings: read-out: Drug uptake

Structure (SMILES)	AUC [1]	BPR ([2]; brain, 1 h)	Cmax [3]	Kp at 1 h [2]	Vd [4]	bioavailability [5]	concentration at 1 h [6]	concentration at 1 h [7]
O=C(Nc1ccc(F)c(-c2nc3cc(-c4ccccc4)cnc3[nH]2)c1)N1CCCC1	20.7 µM·h	0.04						
O=C(Nc1ccc(F)c(-c2nc3ncc(-c4ccc(O)cc4)cc3[nH]2)c1)N1CCCC1	0.328 µM·h		0.13 µM					
O=C(Nc1ccc(F)c(-c2nc3ncc(-c4ccccn4)cn3n2)c1)N1CCC(F)(F)C1	262 µM·h		31.1 µM	0.02	0.7 to 1.1 L/kg	70%		
O=C(Nc1ccc(F)c(-c2nc3ncc(-c4cncc(F)c4)cc3[nH]2)c1)N1CCCC1	3.7 µM·h		1.07 µM					
Cc1nc(C)c(C(=O)Nc2ccc(F)c(-c3nc4ncc(-c5ccccc5Cl)cn4n3)c2)o1	667 µM·h		39.3 µM	0.23	0.7 to 1.1 L/kg	70%	8.8 µM	1.9 µM
O=C(Nc1ccc(F)c(-c2nc3ncc(-c4cc(F)cc(F)c4)cc3[nH]2)c1)N1CCCC1	21.5 µM·h		4.8 µM					
Cc1nc(C)c(C(=O)Nc2ccc(F)c(-c3nc4ncc(-c5ccccn5)cn4n3)c2)o1	765 µM·h		54.4 µM	0.12				
O=C(Nc1ccc(F)c(-c2nc3ncc(-c4ccc(F)c(F)c4)cc3[nH]2)c1)N1CCCC1	27.5 µM·h		6.67 µM	0.02				
O=C(Nc1ccc(F)c(-c2nc3ncc(C(F)(F)F)cc3[nH]2)c1)N1CCCC1	1.24 µM·h		1.08 µM	0.08				

Now from value to molecule:

AUC [1]	BPR ([2]; brain, 1 h)	Cmax [3]	Kp at 1 h [2]	Vd [4]	bioavailability [5]	concentration at 1 h [6]	concentration at 1 h [7]	Structure (SMILES)
24.3 µM·h		6.27 µM	0.04					O=C(Nc1ccc(F)c(-c2nc3ncc(-c4ccc(F)cc4)cc3[nH]2)c1)N1CCCC1
35.7 µM·h		9.5 µM	0.01					O=C(Nc1ccc(F)c(-c2nc3ncc(-c4ccc(F)cc4F)cc3[nH]2)c1)N1CCCC1
10.8 µM·h		1.83 µM						O=C(Nc1ccc(F)c(-c2nc3ncc(-c4cccc(F)c4F)cc3[nH]2)c1)N1CCCC1
35.8 µM·h		7 µM						O=C(Nc1ccc(F)c(-c2nc3ncc(-c4cccc(F)c4)cc3[nH]2)c1)N1CCCC1
73.5 µM·h		25.6 µM						O=C(Nc1ccc(F)c(-c2nc3ncc(-c4cccnc4F)cc3[nH]2)c1)N1CCCC1
11.6 µM·h		2.23 µM	0.02					O=C(Nc1ccc(F)c(-c2nc3ncc(-c4ccccc4F)cc3[nH]2)c1)N1CCCC1
12.8 µM·h		2.8 µM						O=C(Nc1ccc(F)c(-c2nc3ncc(-c4cc(F)ccc4F)cc3[nH]2)c1)N1CCCC1
